This is an account of results in patent publication US12208110B2 (priority 2020, dated 2025).

Format in all cases: cell-based
A short description of data set [1]: MT4 cytotoxicity analysis (CellTiter-Glo). Conditions: human, MT4 CC50 (nM). How it is done:
Example 79: MT4 Cytotoxicity Analysis
3-fold serially diluted compound in DMSO, ranging from 2.5 uM to 10 mM, were added by acoustic transfer (Echo) in quadruplicate into black 384-well plates at 200 nl/well. After compound addition, 40 ul MT-4 cells at 80,000/ml were added to each well using a MicroFlo liquid dispenser (BioTek, Winooski, VT) and the cells were cultured for five days at 37° C. Following the incubation, cell viability was determined by adding 35 μL of CellTiter-Glo viability reagent and mixed thoroughly using ViaFlo 384 well workstation. The mixture was incubated for at least 10 minutes at 25° C., and the luminescence signal was quantified on an EnVision plate reader.
In general terms: In ATP-based viability assays light output follows the ATP content of the culture.

Data set [2] deals with RSV-Fluc (Recombinant Respiratory Syncytial virus strain A2 containing the firefly luciferase reporter). As to the kind of experiment: microbe, parasite or virus in culture. The conditions noted are these: human respiratory syncytial virus, NHBE, 72 h, read-out: RSV-Fluc EC50 (nM, NHBE).
Data set [3] has as its system SARS-CoV-2. As to the kind of experiment: microbe, parasite or virus in culture. Conditions: Severe acute respiratory syndrome coronavirus 2, 48 h.

As a reminder, the CC50 is the concentration giving 50% cytotoxicity. As usually defined, the EC50 is the concentration needed to bring the measured effect to its halfway point. For `CCCCCCCCCCCCCCCCCCOC[C@H](COP(=O)(O)OC[C@H]1O[C@@](C#N)(c2ccc3c(N)ncnn23)[C@H](O)[C@@H]1O)N1Cc2ccccc2C1` [Example 1, ((2R,3S,4R,5R)-5-(4-aminopyrrolo[2,1-f][1,2,4]triazin-7-yl)-5-cyano-3,4-dihydroxytetrahydrofuran-2-yl)methyl ((R)-2-(isoindolin-2-yl)-3-(octadecyloxy)propyl) hydrogen phosphate], the cytotoxic concentration (CC50) at 5 days in data set [1] was 20000 nM. Further, the EC50 in data set [2] was 570 nM; in data set [3], 3200 nM.

On to `CCCCCCCCCCCCCCCCCCOC[C@H](COP(=O)(O)OC[C@H]1O[C@@](C#N)(c2ccc3c(N)ncnn23)[C@H](O)[C@@H]1O)N(Cc1ccc(F)c(Cl)c1)C(C)=O` [Example 10, ((2R,3S,4R,5R)-5-(4-aminopyrrolo[2,1-f][1,2,4]triazin-7-yl)-5-cyano-3,4-dihydroxytetrahydrofuran-2-yl)methyl ((R)-2-(N-(3-chloro-4-fluorobenzyl)acetamido)-3-(octadecyloxy)propyl) hydrogen phosphate], for which the figures for the EC50 in data set [2] and in data set [3] were 55 nM and 3600 nM, respectively. In the same order, the values of `CCCCCCCCCCCCCCCCCCOC[C@H](COP(=O)(O)OC[C@H]1O[C@@](C#N)(c2ccc3c(N)ncnn23)[C@H](O)[C@@H]1O)N1Cc2ccccc2C1=O` [Example 11, ((2R,3S,4R,5R)-5-(4-aminopyrrolo[2,1-f][1,2,4]triazin-7-yl)-5-cyano-3,4-dihydroxytetrahydrofuran-2-yl)methyl ((R)-3-(octadecyloxy)-2-(1-oxoisoindolin-2-yl)propyl) hydrogen phosphate] are 47 nM and 3800 nM.

For the compound `CCCCCCCCCCCCCCCCSCCCOP(=O)(O)OC[C@H]1O[C@@](C#N)(c2ccc3c(N)ncnn23)[C@H](O)[C@@H]1O` [Example 19, ((2R,3S,4R,5R)-5-(4-Aminopyrrolo[2,1-f][1,2,4]triazin-7-yl)-5-cyano-3,4-dihydroxytetrahydrofuran-2-yl)methyl (3-(hexadecylthio)propyl) hydrogen phosphate], the concentration giving a half-maximal response (EC50) in data set [2] turned out to be 210 nM; in data set [3], 3400 nM. Regarding `CCCCCCCCCCCCCCCCOCCOP(=O)(O)OC[C@H]1O[C@@](C#N)(c2ccc3c(N)ncnn23)[C@H](O)[C@@H]1O` [Example 20, ((2R,3S,4R,5R)-5-(4-Aminopyrrolo[2,1-f][1,2,4]triazin-7-yl)-5-cyano-3,4-dihydroxytetrahydrofuran-2-yl)methyl (2-(hexadecyloxy)ethyl) hydrogen phosphate], the EC50 is 200 nM in data set [2] and 3800 nM in data set [3]. Regarding `CCCCCCCCCCCCCCCCCCOC[C@H](COCc1cc(F)cc(S(C)(=O)=O)c1)OP(=O)(O)OC[C@H]1O[C@@](C#N)(c2ccc3c(N)ncnn23)[C@H](O)[C@@H]1O` [Example 33, ((2R,3S,4R,5R)-5-(4-aminopyrrolo[2,1-f][1,2,4]triazin-7-yl)-5-cyano-3,4-dihydroxytetrahydrofuran-2-yl)methyl ((R)-1-((3-fluoro-5-(methylsulfonyl)benzyl)oxy)-3-(octadecyloxy)propan-2-yl) hydrogen phosphate], in data set [2], the EC50 was 120 nM. Same read-out and setting: under `CCCCCCCCCCCCCCCCCCOC[C@H](Cc1ccccc1)OP(=O)(O)OC[C@H]1O[C@@](C#N)(c2ccc3c(N)ncnn23)[C@H](O)[C@@H]1O` [Example 40, ((2R,3S,4R,5R)-5-(4-aminopyrrolo[2,1-f][1,2,4]triazin-7-yl)-5-cyano-3,4-dihydroxytetrahydrofuran-2-yl)methyl ((S)-1-(octadecyloxy)-3-phenylpropan-2-yl) hydrogen phosphate] stands 380 nM. As to `CCCCCCCCCCCCCCCCCCOC[C@H](COP(=O)(O)OC[C@H]1O[C@@](C#N)(c2ccc3c(N)ncnn23)[C@H](O)[C@@H]1O)OCc1cc(F)cc(C(=O)O)c1` [Example 44, 3-((((2R)-1-(((((2R,3S,4R,5R)-5-(4-aminopyrrolo[2,1-f][1,2,4]triazin-7-yl)-5-cyano-3,4-dihydroxytetrahydrofuran-2-yl)methoxy)(hydroxy)phosphoryl)oxy)-3-(octadecyloxy)propan-2-yl)oxy)methyl)-5-fluorobenzoic acid], in data set [1], the CC50 at 5 days was determined as 25000 nM. Also, the EC50 in data set [2] turned out to be 120 nM. For `CCCCCCCCCCCCCCCCCCOC[C@H](COP(=O)(O)OC[C@H]1O[C@@](C#N)(c2ccc3c(N)ncnn23)[C@H](O)[C@@H]1O)Oc1ccc(C#N)c(OC)c1F` [Example 48, ((2R,3S,4R,5R)-5-(4-aminopyrrolo[2,1-f][1,2,4]triazin-7-yl)-5-cyano-3,4-dihydroxytetrahydrofuran-2-yl)methyl ((R)-2-(4-cyano-2-fluoro-3-methoxyphenoxy)-3-(octadecyloxy)propyl) hydrogen phosphate], in data set [1], the CC50 at 5 days came out at 160 nM. For the same compound, the EC50 in data set [2] was 17 nM. The like results for `CCCCCCCCCCCCCCCCCCOC[C@H](COP(=O)(O)OC[C@H]1O[C@@](C#N)(c2ccc3c(N)ncnn23)[C@H](O)[C@@H]1O)Oc1cc(C)c(C#N)cc1F` [Example 49, ((2R,3S,4R,5R)-5-(4-aminopyrrolo[2,1-f][1,2,4]triazin-7-yl)-5-cyano-3,4-dihydroxytetrahydrofuran-2-yl)methyl ((R)-2-(4-cyano-2-fluoro-5-methylphenoxy)-3-(octadecyloxy)propyl) hydrogen phosphate] were, in that order, 1100 nM and 23 nM.

For the compound `CCCCCCCCCCCCCCCCCCOC[C@H](COP(=O)(O)OC[C@H]1O[C@@](C#N)(c2ccc3c(N)ncnn23)[C@H](O)[C@@H]1O)OCc1cc(F)c(Cl)c(C#N)c1` [Example 50, ((2R,3S,4R,5R)-5-(4-aminopyrrolo[2,1-f][1,2,4]triazin-7-yl)-5-cyano-3,4-dihydroxytetrahydrofuran-2-yl)methyl ((R)-2-((4-chloro-3-cyano-5-fluorobenzyl)oxy)-3-(octadecyloxy)propyl) hydrogen phosphate], it took 640 nM to reach half-maximal cytotoxicity in data set [1] (CC50 at 5 days). Moreover, the EC50 in data set [2] worked out at 24 nM.

Turning to `CCCCCCCCCCCCCCCCCCOC[C@H](COP(=O)(O)OC[C@H]1O[C@@](C#N)(c2ccc3c(N)ncnn23)[C@H](O)[C@@H]1O)OCc1cc(F)c(CCC)c(C#N)c1` [Example 51, ((2R,3S,4R,5R)-5-(4-aminopyrrolo[2,1-f][1,2,4]triazin-7-yl)-5-cyano-3,4-dihydroxytetrahydrofuran-2-yl)methyl ((R)-2-((3-cyano-5-fluoro-4-propylbenzyl)oxy)-3-(octadecyloxy)propyl) hydrogen phosphate], half-maximal cytotoxicity in data set [1] (CC50 at 5 days) was put at 6700 nM. Besides, in data set [2], the concentration for a half-maximal effect (EC50) was 100 nM. The like results for `CCCCCCCCCCCCCCCCCCOC[C@H](COP(=O)(O)OC[C@H]1O[C@@](C#N)(c2ccc3c(N)ncnn23)[C@H](O)[C@@H]1O)Oc1cc(OC)c(C#N)cc1F` [Example 52, ((2R,3S,4R,5R)-5-(4-aminopyrrolo[2,1-f][1,2,4]triazin-7-yl)-5-cyano-3,4-dihydroxytetrahydrofuran-2-yl)methyl ((R)-2-(4-cyano-2-fluoro-5-methoxyphenoxy)-3-(octadecyloxy)propyl) hydrogen phosphate] were, in that order, 370 nM and 17 nM. The like results for `CCCCCCCCCCCCCCCCCCOC[C@H](COP(=O)(O)OC[C@H]1O[C@@](C#N)(c2ccc3c(N)ncnn23)[C@H](O)[C@@H]1O)OCc1cc(F)c(C)c(C#N)c1` [Example 53, ((2R,3S,4R,5R)-5-(4-aminopyrrolo[2,1-f][1,2,4]triazin-7-yl)-5-cyano-3,4-dihydroxytetrahydrofuran-2-yl)methyl ((R)-2-((3-cyano-5-fluoro-4-methylbenzyl)oxy)-3-(octadecyloxy)propyl) hydrogen phosphate] were, in that order, 430 nM and 25 nM.

In turn, `CCCCCCCCCCCCCCCCCCOC[C@H](COP(=O)(O)OC[C@H]1O[C@@](C#N)(c2ccc3c(N)ncnn23)[C@H](O)[C@@H]1O)OCc1cc(C#N)c(Cl)c(OC)c1` [Example 54, ((2R,3S,4R,5R)-5-(4-aminopyrrolo[2,1-f][1,2,4]triazin-7-yl)-5-cyano-3,4-dihydroxytetrahydrofuran-2-yl)methyl ((R)-2-((4-chloro-3-cyano-5-methoxybenzyl)oxy)-3-(octadecyloxy)propyl) hydrogen phosphate] displayed a half-maximal cytotoxic concentration (CC50) at 5 days in data set [1] of 1300 nM. In data set [2], the EC50 is 64 nM.

Regarding `CCCCCCCCCCCCCCCCCCN(C)C(=O)[C@H](COP(=O)(O)OC[C@H]1O[C@@](C#N)(c2ccc3c(N)ncnn23)[C@H](O)[C@@H]1O)OCc1cc(F)cc(C#N)c1` [Example 56, ((2R,3S,4R,5R)-5-(4-aminopyrrolo[2,1-f][1,2,4]triazin-7-yl)-5-cyano-3,4-dihydroxytetrahydrofuran-2-yl)methyl ((S)-2-((3-cyano-5-fluorobenzyl)oxy)-3-(methyl(octadecyl)amino)-3-oxopropyl) hydrogen phosphate], the midpoint of cytotoxicity in data set [1], the CC50 at 5 days, lay at 200 nM. The EC50 in data set [2] was determined as 13 nM. `CCCCCCCCCCCCCCCCOCCOP(=O)(O)OC[C@H]1O[C@@](C#N)(c2ccc3c(N)ncnn23)[C@H](O)[C@@H]1O` [Example 66, [(2R,3S,4R,5R)-5-(4-Aminopyrrolo[2,1-f][1,2,4]triazin-7-yl)-5-cyano-3,4-dihydroxy-tetrahydrofuran-2-yl]methyl 2-hexadecoxyethyl hydrogen phosphate]: the CC50 at 5 days in data set [1] was 29000 nM.
